# Like-named read-outs stand apart in the source and are kept apart here. *1 amine or outer side, *2 acyl side, *3 side chain or, on linkers, in order; H or OH if unused. Where a SMILES comes first, the peptide text is derived from it. Bridges are numbered along the chain shown (N, C = ends). Roman numbers before positions name the chains, in order. [ ]: non-standard residue; d: D form. The star is where a group is joined. Hexanoyl(6-succinimido-3yl) = O=C1CC([*:1])C(=O)N1CCCCCC(=O)[*:2]; Dolaproine = CO[C@@H]([C@@H]1CCCN1)[C@@H](C)C(=O)O; Dil = CC[C@H](C)[C@H](NC)[C@@H](CC(=O)O)OC; γGlu = O=C(O)[C@H](CCC(=O)[*:2])N[*:1]; PABC = O=C(OCc1ccc(N[*:1])cc1)[*:2]; X2 = C[C@@H](N*)[C@@H](O)c1ccccc1; X1 = O=C(C1CCC(CN[*:1])CC1)[*:2]; Cit = NC(=O)NCCC[C@H](N)C(=O)O; NMeV = CN[C@H](C(=O)O)C(C)C; CO = O=C([*:1])[*:2]; Ahx = NCCCCCC(=O)O
# Experiments:
# [1] = In vitro cytotoxicity assay (CCK-8), PC3flu; format: cell-based, human; conditions: human, PC3flu cells
# Experimental: Cells (1000/well) were seeded in 96-well culture plates the day before treatment.
# [2] = test system: heterotopic PC3flu tumors; test: Heterotopic PC3flu versus PC3pip tumor study; format: in vivo, mouse; conditions: 955 nmol/kg every 4 days, five doses, n = 5, p = 0.0493
# Experimental: Male athymic nude mice were implanted subcutaneously with 1 × 10^6 of PC3pip cells 100 μL of matrigel. When tumor size reached approximately 100 mm^3 (tumor volume = Length × width^2/2), mice received drugs through tail vein injection every 4 days with a total of five doses. Mice were treated every 4 days with a total of five doses. Animals were weighed and tumor size measured every other day for 90 days. Cures were defined as no tumor present at end of the 90-day study. When tumors became too large or animals were moribund they were euthanized. Five mice were used in each group. […]
# drugs through tail vein inject every 4 days with total of 5 injections as indicated by the red arrows.
# Each group had 5 mice. Values are mean ± SD of 5 animals. The plots stopped when animals died during the experiments since values are represent as mean ± SD of 5 animals.
# (nmol/kg) Tumor Growth (nmol/kg) Therapeutic Index *
# *: Therapeutic index is defined by MTD/effective dose.
# PC3flu tumors. Treatment were scheduled every 4 days with a total of five doses as indicated by the red arrow. Each group had 5 mice. For tumor growth curves and body weight curves, values are mean ± SD of 5 animals. The plots stopped when animals died during the experiments since values are represent as mean ± SD of 5 animals. (A) Tumor growth curves of mice treated with 955 nmol/kg of PSMA-1-VcMMAE. […]
smiles,measurement,setting,value
CC[C@H](C)[C@@H]([C@@H](CC(=O)N1CCC[C@H]1[C@H](OC)[C@@H](C)C(=O)N[C@H](C)[C@@H](O)c1ccccc1)OC)N(C)C(=O)[C@@H](NC(=O)[C@H](C(C)C)N(C)C(=O)OCc1ccc(NC(=O)[C@H](CCCNC(N)=O)NC(=O)[C@@H](NC(=O)CCCCCN2C(=O)CC(SC[C@H](NC(=O)[C@@H](CCC(=O)O)NC(=O)[C@@H](CCC(=O)O)NC(=O)[C@@H](CCC(=O)O)NC(=O)CCCCCNC(=O)C3CCC(CNC(=O)CC[C@H](NC(=O)N[C@@H](CCC(=O)O)C(=O)O)C(=O)O)CC3)C(=O)NCCCCCC(=O)N[C@@H](CCCCN)C(N)=O)C2=O)C(C)C)cc1)C(C)C (stereo partly shown) [PSMA-1-VcMMAE] (I: {Glu-CO-γGlu}-[X1][Ahx][dE][dE][dE]C[Ahx]K-NH2 / II: V[Cit][PABC][NMeV]V[Dil][Dolaproine]-X2; linker I:6-II:N via Hexanoyl(6-succinimido-3yl)),EC50 at 72 h,"[1]; 72 h, CCK-8, in the presence of 10 μM of PSMA-1, read-out: EC50, cytotoxicity to PC3flu cells + PSMA-1",261 ± 5.6 nM
same,EC50 at 72 h,"[1]; 72 h, CCK-8, in the presence of protease inhibitor E64 (50 μM given for the Cy5.5 conjugates), read-out: EC50, cytotoxicity to PC3flu cells + E64",385 ± 5.3 nM
same,EC50 at 72 h,"[1]; 72 h incubation, CCK-8, mean ± SD, read-out: EC50, cytotoxicity to PC3flu cells",222 ± 2.8 nM
same,inhibition of PC3pip versus PC3flu tumor growth (in words),[2],significantly more effective at inhibiting PSMA-positive PC3pip tumor growth than PSMA-negative PC3flu tumor growth

# Source: PMC7865627, “Small Molecule-Based Prodrug Targeting Prostate Specific Membrane Antigen for the Treatment of Prostate Cancer” (Cancers, 2021)
